This note sets out measurements from patent US20070173488A1, “Pyrazolothiazole Protein Kinase Modulators” (SGX Pharmaceuticals, Inc., priority 2005, published 2007).

The target of assay [1] is T1, T315I Abl (Mus musculus, UniProt P00520, T315I).
T1 construct: The c-Abl T315I KD (kinase domain) was purified as follows; made in house; host or cells: E. coli BL21(DE3) pSA0145 (lambda phosphatase co-expression) or BL21(DE3)Codon+RIL
T1 sequence (P00520 242-493 T315I limits assumed): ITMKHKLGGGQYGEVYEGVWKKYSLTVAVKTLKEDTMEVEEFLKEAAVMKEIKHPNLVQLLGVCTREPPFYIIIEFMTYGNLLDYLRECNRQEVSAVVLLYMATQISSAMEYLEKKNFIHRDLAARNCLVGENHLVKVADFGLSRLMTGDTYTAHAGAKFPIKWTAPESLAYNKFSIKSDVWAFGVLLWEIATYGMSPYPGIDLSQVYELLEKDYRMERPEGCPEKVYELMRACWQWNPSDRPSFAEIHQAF
As to the kind of experiment: cAbl Luminescence-based Enzyme Assay (Kinase-Glo). Type of assay: biochemical. The source says:
Homogeneous luminescence-based inhibitor screening assays were developed for c-Abl, MET, AurA, and PDK1 kinases (among others). Each of these assays made use of an ATP depletion assay (Kinase-Glo™, Promega Corporation, Madison, Wis.) to quantitate kinase activity. The Kinase-Glo™ format uses a thermostable luciferase to generate luminescent signal from ATP remaining in solution following the kinase reaction. The luminescent signal is inversely correlated with the amount of kinase activity.
Dose response was analyzed using the equation: y=min+{(max−min)/(1 +10^[compound]-logIC50)}, where y is the observed initial slope, max=the slope in the absence of inhibitor, min=the slope at infinite inhibitor, and the IC50 is the [compound] that corresponds to ½ the total observed amplitude (Amplitude=max−min).
An open-reading frame for c-Abl was amplified from a Mus musculus (mouse) cDNA library prepared from freshly harvested mouse liver using a commercially available kit (Invitrogen) by PCR using the following primers: […]
The c-Abl T315I KD (kinase domain) was purified as follows. Cells were collected by centrifugation, lysed in diluted cracking buffer (50 mM Tris HCl, pH 7.5, 500 mM KCl, 0.1% Tween 20, 20 mM Imidazole, with sonication, and centrifuged to remove cell debris. The soluble fraction was purified over an IMAC column charged with nickel (Pharmacia, Uppsala, Sweden), and eluted under native conditions with a gradient of 20 mM to 500 mM imidazole in 50 mM Tris, pH7.8, 500 mM NaCl, 10 mM methionine, 10% glycerol. The protein was then further purified by gel filtration using a Superdex 75 preparative grade column equilibrated in GF5 buffer (10 mM HEPES, pH7.5, 10 mM methionine, 500 mM NaCl, 5 mM DTT, and 10% glycerol). Fractions containing the purified c-Abl T315I KD kinase domain were pooled. The protein obtained was 98% pure as judged by electrophoresis on SDS polyacrylamide gels. […] The protein was then dephosphorylated with Shrimp Alkaline Phosphatase (MBI Fermentas, Burlington, Canada) under the following conditions: 100U Shrimp Alkaline Phosphatase/mg of c-Abl T315I KD, 100 mM MgCl2, and 250 mM additional NaCl. The reaction was run overnight at 23° C. The protein was determined to be unphosphorylated by Mass spectroscopic analysis. Any precipitate was spun out and the soluble fraction was separated from reactants by gel filtration using a Superdex 75 preparative grade column equilibrated in GF4 buffer (10 mM HEPES, pH7.5, 10 mM methionine, 150 mM NaCl, 5 mM DTT, and 10% glycerol).
cAbl Luminescence-based Enzyme Assay
Materials: Abl substrate peptide=EAIYAAPFAKKK-OH (Biopeptide, San Diego, Calif.), ATP (Sigma Cat#A-3377, FW=551), HEPES buffer, pH 7.5, Bovine serum albumin (BSA) (Roche 92423420), MgCl2, Staurosporine (Streptomyces sp. Sigma Cat#85660-1MG), white Costar 384-well flat -bottom plate (VWR Cat#29444-088), Abl kinase (see below), Kinase-Glo™ (Promega Cat#V6712).
Stock Solutions: 10 mM Abl substrate peptide (13.4 mg/ml in miliQH2O) stored at −20° C.; 100 mM HEPES buffer, pH 7.5 (5 ml 1M stock+45ml miliQH2O); 10 mM ATP (5.51 mg/ml in dH2O) stored at −20° C. (diluted 50 μl into total of 10 ml miliQH2O daily =50 μM ATP working stock); 1% BSA (1 g BSA in 100 ml 0.1 M HEPES, pH 7.5, stored at −20° C.), 100 μM MgCl2; 200 μM Staurosporine, 2× Kinase-Glo™ reagent (made fresh or stored at −20° C.).
Standard Assay Setup for 384-well format (20 μl kinase reaction, 40 μl detection reaction): 10 mM MgCl2; 100 μM Abl substrate peptide; 0.1% BSA; 1 μl test compound (in DMSO); 0.4 μg/ml Abl kinase domain; 10 μM ATP; 100 mM HEPES buffer. Positive controls contained DMSO with no test compound. Negative controls contained 10 μM staurosporine.
The kinase reactions were initiated at time t=0 by the addition of ATP. Kinase reactions were incubated at 21° C. for 30 min, then 20 μl of Kinase-Glo™ reagent were added to each well to quench the kinase reaction and initiate the luminescence reaction. […]
(In Kinase-Glo more light means more ATP remaining.)

Assay [2] deals with T2, T315I Ba/F3 (Homo sapiens, UniProt P00519, T315I, cells depend on it, form not given).
T2 construct: The candidate is BCR (P11274) N-terminal part, as in Bcr-Abl p210 or p185
As to the kind of experiment: 96-well XTT cell survival assay (Ba/F3 cells). The format is cell-based. The following applies: 72 hours, read-out: T315I Ba/F3 XTT IC50. As for the experimental part: Ba/F3 cells were maintained in RPMI 1640 supplemented with 10% FBS, penicillin/streptomycin and 5 ng/ml recombinant mouse IL-3.
Compounds were tested in the following assays in duplicate.
96-well XTT assay (Ba/F3 cells): Cells were grown in growth media containing various concentrations of compounds (duplicates) on a 96-well plate for 72 hours at 37° C. The starting cell number was 5000-8000 cells per well and volume was 120 μl. At the end of the 72-hour incubation, 40 μl of XTT labeling mixture (50:1 solution of sodium 3′-[1-(phenylamino-carbonyl)-3,4-tetrazolium]-bis (4-methoxy-6-nitro) benzene sulfonic acid hydrate and Electron-coupling reagent: PMS (N-methyl dibenzopyrazine methyl sulfate) were added to each well of the plate. After an additional 2-6 hours of incubation at 37° C., the absorbance reading at 405 nm with background correction at 650 nm was measured with a spectrophotometer.
In general terms: Tetrazolium assays rely on reduction of a dye to a coloured formazan, in cell work by metabolically active cells.

Usually IC50 stands for the concentration needed to halve the response being measured. As to `O=C(Nc1nc2[nH]nc(-n3cncc3-c3ccc4ccccc4c3)c2s1)C1CC1` [Cyclopropanecarboxylic acid [3-(5-naphthalen-2-yl-imidazol-1-yl)-1H-pyrazolo[3,4-d]thiazol-5-yl]-amide], in assay [1], the IC50 is 1 to 10 µM.

In the case of `O=C(Nc1nc2[nH]nc(-n3cncc3-c3ccccc3)c2s1)C1CC1` [Cyclopropanecarboxylic acid [3-(5-phenyl-imidazol-1-yl)-1H-pyrazolo[3,4-d]thiazol-5-yl]-amide], the GI50 in assay [2] fell in the range of 0.1 to 1 µM. Further, the IC50 in assay [1] is 0.1 to 1 µM.

Turning to `O=C(Nc1nc2[nH]nc(-n3cncc3-c3ccccn3)c2s1)C1CC1` [Cyclopropanecarboxylic acid [3-(5-pyridin-2-yl-imidazol-1-yl)-1H-pyrazolo[3,4-d]thiazol-5-yl]-amide], the GI50 in assay [2] lay within 1 to 10 µM. The same molecule came in with a half-maximal inhibitory concentration (IC50) in assay [1] below 0.1 µM.

For `O=C(Nc1nc2[nH]nc(-n3cncc3-c3c(Cl)ccc(Cl)c3Cl)c2s1)C1CC1` [Cyclopropanecarboxylic acid {3-[5-(2,3,6-trichloro-phenyl)-imidazol-1-yl]-1H-pyrazolo[3,4-d]thiazol-5-yl}-amide], the GI50 in assay [2] is 0.1 to 1 µM. Further, the IC50 in assay [1] was below 0.1 µM.

With `O=C(Nc1nc2[nH]nc(-n3cncc3-c3cccc(F)c3F)c2s1)C1CC1` [Cyclopropanecarboxylic acid {3-[5-(2,3-difluoro-phenyl)-imidazol-1-yl]-1H-pyrazolo[3,4-d]thiazol-5-yl}-amide], the GI50 in assay [2] lay in the range of 0.1 to 1 µM. The same molecule gave an IC50 in assay [1] below 0.1 µM.

As for `O=C(Nc1nc2[nH]nc(-n3cncc3-c3c(Cl)cccc3Cl)c2s1)C1CC1` [Cyclopropanecarboxylic acid {3-[5-(2,6-dichloro-phenyl)-imidazol-1-yl]-1H-pyrazolo[3,4-d]thiazol-5-yl}-amide], the GI50 in assay [2] fell in the range of 0.1 to 1 µM. The molecule further had an IC50 in assay [1] below 0.1 µM.

As for `O=C(Nc1nc2[nH]nc(-n3cncc3-c3ccccc3Cl)c2s1)C1CC1` [Cyclopropanecarboxylic acid {3-[5-(2-chloro-phenyl)-imidazol-1-yl]-1H-pyrazolo[3,4-d]thiazol-5-yl}-amide], the GI50 in assay [2] fell in the range of 0.1 to 1 µM. This molecule also came in with an IC50 in assay [1] below 0.1 µM.

`NC(=O)COc1ccc(-c2cncn2-c2n[nH]c3nc(NC(=O)C4CC4)sc23)c(Cl)c1` [Cyclopropanecarboxylic acid {3-[5-(4-carbamoylmethoxy-2-chloro-phenyl)-imidazol-1-yl]-1H-pyrazolo[3,4-d]thiazol-5-yl}-amide]: the IC50 in assay [1] is below 0.1 µM.
